Laboratory results published in PMC4767442 (Oncotarget, 2015).

Legend:
[1] = Pharmacokinetics and metabolism of Bp4eT in rats (literature); assay type: in vivo
[2] = cited from earlier work
[3] = design: method as in PMID 12203104; details: humans, single i.v. bolus; cited from earlier work
[4] = tested on: MCF-7 human breast adenocarcinoma cell line; test: MTT proliferation/viability assay, MCF-7; assay type: cell-based; details: MCF7, 72 h/37°C, mean ± S.D.
Protocol: (§1) The MCF-7 human breast adenocarcinoma cell line was purchased from the European Collection of Cell Cultures (U.K.). The HL-60 human promyelocytic leukemia cell line, HCT116 human colorectal carcinoma cell line, H9c2 rat heart-derived myoblast cell line and 3T3 mouse embryo fibroblast line, were obtained from the American Type Culture Collection (VA, U.S.A.). Cells were cultured in Dulbecco's modified Eagle's medium (DMEM, Lonza, Switzerland) with or without (for MCF-7 cells only) phenol red, supplemented with 10% heat-inactivated fetal bovine serum (FBS; Lonza, Switzerland), 1% penicillin/streptomycin solution (Lonza, Switzerland) and 10 mM HEPES buffer (pH 7.0-7.6; Sigma-Aldrich, Germany). The HL-60 cell line was maintained in RPMI medium (Sigma-Aldrich, Germany) supplemented with 10% heat-inactivated FBS and 1% penicillin/streptomycin solution. All cell lines were cultured in 75 cm^2 tissue culture flasks (Switzerland) at 37°C in a humidified atmosphere of 5% CO2. Sub-confluent cells or, in the case of HL-60 cells, a cell suspension, were sub-cultured every 3-4 days.
(§2) Cells were seeded in 96-well plates for 24 h/37°C at a density of 5,000 (MCF-7), 10,000 (HL-60), 2,000 (HCT116) and 10,000 (3T3 and H9c2) cells/well. For 3T3 and H9c2 cells, the medium was changed to serum- and pyruvate-free DMEM 24 h prior to the experiments. Anti-proliferative and cytotoxicity effects of the compounds were studied at different concentrations after incubations for 72 h/37°C. Viabilities of cells were determined using MTT assays (Sigma-Aldrich, Germany) according to the manufacturer's instructions on a Tecan Infinite 200M plate reader (Tecan, Austria). The proliferation/viability of treated groups was expressed as a percentage of the untreated controls (100%).

[5] = tested on: HL-60 human promyelocytic leukemia cell line; test: MTT proliferation/viability assay, HL-60; assay type: cell-based; details: 72 h/37°C, mean ± S.D.
Protocol: as §1, §2

[6] = tested on: H9c2 rat heart-derived myoblast cell line; test: MTT proliferation/viability assay, H9c2; assay type: cell-based; details: 72 h/37°C, mean ± S.D., serum- and pyruvate-free DMEM
Protocol: as §1, §2

MCF-7 cells [7] = test: Inhibition of internalized 59Fe uptake from 59Fe-transferrin; assay type: cell-based, human; details: MCF-7, compounds 25 μmol·L^−1, 3 h/37°C
Protocol: (§3) Iron chelation efficiency of the compounds at a concentration of 10 μmol·L^−1 was determined via 3 methods: (1) the calcein assay; (2) the ability of the ligands to induce ^59Fe mobilization from cells prelabeled with ^59Fe-transferrin; and (3) the efficacy of these agents to inhibit the uptake of ^59Fe from ^59Fe-transferrin [22, 38–40].
(§4) The fluorimetric calcein-AM assay was performed by established methods, as described previously. The Fe chelation efficiency of the metabolites in cells was expressed as a percentage of that of the parent chelator, Dp44mT or DpC (100%). For studies assessing the ability of these agents to induce ^59Fe mobilization and inhibit ^59Fe uptake from ^59Fe-transferrin by cells, human transferrin (Sigma-Aldrich, Germany) was labeled with ^59Fe (PerkinElmer, MA, USA) to generate ^59Fe-transferrin at a final specific activity of 500 pCi/pmol Fe, as previously described. The unbound ^59Fe was removed by exhaustive vacuum dialysis against a large excess of 0.15 M NaCl buffered to pH 7.4 with 1.4% NaHCO3 by standard methods.
(§5) To examine the ability of the studied substances to mobilize ^59Fe from MCF-7 cells or inhibit ^59Fe uptake from ^59Fe-transferrin, established techniques were utilized. For ^59Fe mobilization studies, cells were preincubated with ^59Fe-transferrin (0.75 μmol·L^−1) for 3 h/37°C, washed 4 times at 4°C on ice, and then reincubated with control medium or control medium containing the compounds (25 μmol·L^−1) for 3 h/37°C. The release of ^59Fe from the cells into the overlying medium was then examined by collecting both the cells and overlying medium and assessing ^59Fe levels using a γ-counter. For studies examining the ability of the agents to inhibit ^59Fe uptake from ^59Fe-transferrin, cells were incubated for 3 h/37°C with ^59Fe-transferrin (0.75 μmol·L^−1) in the presence or absence of the agents (25 μmol·L^−1), and then washed 4 times at 4°C on ice. The internalization of ^59Fe by cells was then assessed by incubation for 30 min/4°C with the general protease, Pronase (1 mg/mL), utilizing standard techniques. The amount of internalized ^59Fe in the presence of the agents was expressed as a percentage of ^59Fe internalized by control cells incubated in the presence of control media alone.

[8] = tested on: cellular labile iron pools; test: Fluorimetric calcein-AM assay of intracellular iron chelation; assay type: cell-based; details: 10 μmol·L^−1, parent Dp44mT or DpC
Protocol: as §3, §4

[9] = tested on: cancer cell lines (HL-60, MCF-7 and HCT116); test: MTT assay, cancer cell lines as a group; assay type: cell-based; details: Homo sapiens, HL-60, MCF-7, HCT116, 72 h/37°C, read-out: IC50 against all cancer cell lines
Protocol: as §1, §2

[10] = Long-term stability in plasma samples at -80°C; assay type: in vitro ADME, rat; details: for Long-term stability: plasma, -80°C, 7 days
Protocol: (§6) The UHPLC-MS/MS methods for quantitative assays were validated with respect to selectivity, linearity, precision, accuracy, stability, recovery, matrix effects and dilution integrity (see […]
Linearity was examined over the concentration ranges described in Supplementary Table 1 using a weighted (1/x 2) linear regression in GraphPad Prism 6 (v. 6.04, GraphPad Software […]
(§7) Stability was assessed at low, medium and high concentration levels. Long -term stability was assessed for plasma samples at -80°C over a period of 7 days (three aliquots per level; Supplementary Table 3). […]

MCF-7 cells [11] = test: 59Fe mobilization from cells prelabeled with 59Fe-transferrin; assay type: cell-based, human; details: MCF-7 prelabeled with 59Fe-transferrin, compounds 25 μmol·L^−1, 3 h/37°C
Protocol: as §3, §4, §5

[12] = Post-preparative stability in the autosampler at 10°C; assay type: physicochemical; details: for Post-preparative stability: autosampler 10°C, 24 h
Protocol: as §6
Supplementary Table 1-3). […]
as §7

[13] = tested on: non-cancer cell lines (H9c2 and 3T3); test: MTT assay, non-cancer cell lines as a group; assay type: cell-based; details: Rattus norvegicus, 72 h/37°C, read-out: IC50 towards non-cancer cells
Protocol: as §1, with “All cell lines were cultured in 75 cm^2 tissue culture flasks (Switzerland) at 37°C in a humidified atmosphere of 5% CO2. Sub-confluent cells or, in the case of HL-60 cells, a cell suspension, were sub-cultured every 3-4 days.” left out
Cells were seeded in 96-well plates for 24 h/37°C at a density of 5,000 (MCF-7), 10,000 (HL-60), 2,000 (HCT116) and 10,000 (3T3 and H9c2) cells/well. […] Viabilities of cells were determined using MTT assays (Sigma-Aldrich, Germany) according to the manufacturer's instructions on a Tecan Infinite 200M plate reader (Tecan, Austria). The proliferation/viability of treated groups was expressed as a percentage of the untreated controls (100%).

[14] = tested on: 3T3 mouse embryo fibroblast line; test: MTT proliferation/viability assay, 3T3; assay type: cell-based; details: 72 h/37°C, mean ± S.D., serum- and pyruvate-free DMEM
Protocol: as §1, §2

[15] = tested on: HCT116 human colorectal carcinoma cell line; test: MTT proliferation/viability assay, HCT116; assay type: cell-based; details: HCT-116, 72 h/37°C, mean ± S.D.
Protocol: as §1, §2

[16] = high concentration level (2.105-3.115 µmol·L-1)
[17] = low concentration level (0.035-0.156 µmol·L-1)
[18] = medium concentration level (0.702-1.558 µmol·L-1)

Structure (SMILES): CCNC(=S)NN=C(c1ccccc1)c1ccccn1 [Bp4eT, 2-benzoylpyridine 4-ethyl-3-thiosemicarbazone]
- dose-corrected Cmax, fold higher than Dp44mT and DpC of the present study [1]: ~2 fold
- AUC of the amidrazone metabolite relative to the parent drug ([2]; rat, in vivo): ≈ 20%
- elimination half-life ([2]; rats): 1.4 h

Structure (SMILES): NC(=S)NN=Cc1ncccc1N [Triapine®, 3-aminopyridine-2-carboxaldehyde thiosemicarbazone]
- half-life of elimination [3]: approximately 1 h

Structure (SMILES): CN(C=NN=C(c1ccccn1)c1ccccn1)C1CCCCC1 [DpC-A, N-cyclohexyl-N′-(di(pyridin-2-yl)methylene)-N-methylformohydrazonamide]
- IC50 [4]: 19.5 ± 6.27 µM
- IC50 [5]: 32.3 ± 3.85 µM
- IC50 [6]: 257 ± 73.6 µM
- inhibition of 59Fe uptake from 59Fe-transferrin (in words) (MCF-7 cells [7]): loss of Fe chelation efficacy
- intracellular Fe chelation efficacy relative to parent chelator (100%) [8]: 2.5%
- IC50 [9]: ≥ 19 µM
- Long-term stability [10, 16]: 104.23%
- Long-term stability [10, 17]: 87.83%
- Long-term stability [10, 18]: 105.54%
- decomposition on storage (in words) ([10]; up to 7 days stored at −80°C): No significant decomposition
- 59Fe mobilization (in words) (MCF-7 cells [11]): comparable (p > 0.05) to the control medium
- decomposition on storage (in words) ([12]; 24 h storage in the autosampler at 10°C): No significant decomposition
- Post-preparative stability [12, 16]: 99.55%
- Post-preparative stability [12, 17]: 101.11%
- Post-preparative stability [12, 18]: 93.89%
- IC50 [13]: ≥ 257 µM
- IC50 [14]: 640 ± 65.9 µM
- IC50 [15]: 34.1 ± 6.35 µM
